# ChEMBL document CHEMBL1133162, “Tyrosine kinase inhibitors. 17. Irreversible inhibitors of the epidermal growth factor receptor: 4-(phenylamino)quinazoline- and 4-(phenylamino)pyrido[3,2-d]pyrimidine-6-acrylamides bearing additional solubilizing functions” (J Med Chem, 2000)
# Calls of active or inactive are those of the source. The calls are words filed in the database; no cut-off is given here.
# What was measured:
# [1] = molecular target: Receptor tyrosine-protein kinase erbB-2 (Homo sapiens, UniProt P04626)
# Chain of Receptor tyrosine-protein kinase erbB-2 (P04626 whole entry): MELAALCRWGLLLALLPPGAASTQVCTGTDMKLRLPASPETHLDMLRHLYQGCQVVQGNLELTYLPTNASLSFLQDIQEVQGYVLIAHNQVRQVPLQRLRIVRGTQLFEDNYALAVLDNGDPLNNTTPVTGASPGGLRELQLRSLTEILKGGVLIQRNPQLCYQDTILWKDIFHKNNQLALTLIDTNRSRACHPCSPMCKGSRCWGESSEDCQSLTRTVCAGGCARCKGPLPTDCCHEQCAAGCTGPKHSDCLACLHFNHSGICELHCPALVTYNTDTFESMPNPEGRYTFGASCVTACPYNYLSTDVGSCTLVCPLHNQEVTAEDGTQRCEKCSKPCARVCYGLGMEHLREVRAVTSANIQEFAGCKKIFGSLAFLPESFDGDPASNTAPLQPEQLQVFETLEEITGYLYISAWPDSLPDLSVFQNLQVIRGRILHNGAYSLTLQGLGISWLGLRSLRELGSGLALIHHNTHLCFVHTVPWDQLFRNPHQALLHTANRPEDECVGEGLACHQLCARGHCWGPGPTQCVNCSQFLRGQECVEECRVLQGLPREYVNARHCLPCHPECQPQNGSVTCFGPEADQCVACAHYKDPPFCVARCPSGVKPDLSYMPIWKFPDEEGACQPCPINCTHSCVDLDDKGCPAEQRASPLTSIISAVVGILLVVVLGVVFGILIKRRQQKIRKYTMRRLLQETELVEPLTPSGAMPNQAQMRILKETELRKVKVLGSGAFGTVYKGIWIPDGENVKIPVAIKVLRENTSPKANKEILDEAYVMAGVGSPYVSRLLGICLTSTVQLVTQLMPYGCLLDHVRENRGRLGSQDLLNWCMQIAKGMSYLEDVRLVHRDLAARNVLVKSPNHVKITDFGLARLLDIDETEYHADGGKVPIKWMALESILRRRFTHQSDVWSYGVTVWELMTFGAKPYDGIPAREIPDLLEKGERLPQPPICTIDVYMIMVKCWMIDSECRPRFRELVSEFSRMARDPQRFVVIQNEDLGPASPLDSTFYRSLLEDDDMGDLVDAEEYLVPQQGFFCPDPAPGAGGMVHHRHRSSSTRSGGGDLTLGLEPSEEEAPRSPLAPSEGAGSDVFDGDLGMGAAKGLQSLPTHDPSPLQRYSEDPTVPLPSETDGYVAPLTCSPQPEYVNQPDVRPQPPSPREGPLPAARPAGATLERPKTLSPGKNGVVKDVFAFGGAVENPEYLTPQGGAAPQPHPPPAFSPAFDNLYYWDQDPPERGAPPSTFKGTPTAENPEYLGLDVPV
# Description: Inhibition of autophosphorylation of ERBB2 receptor kinase in MDA-MB 453 cells
# [2] = molecular target: T1, Epidermal growth factor receptor (Homo sapiens, UniProt P00533)
# T1 sequence (P00533 whole entry): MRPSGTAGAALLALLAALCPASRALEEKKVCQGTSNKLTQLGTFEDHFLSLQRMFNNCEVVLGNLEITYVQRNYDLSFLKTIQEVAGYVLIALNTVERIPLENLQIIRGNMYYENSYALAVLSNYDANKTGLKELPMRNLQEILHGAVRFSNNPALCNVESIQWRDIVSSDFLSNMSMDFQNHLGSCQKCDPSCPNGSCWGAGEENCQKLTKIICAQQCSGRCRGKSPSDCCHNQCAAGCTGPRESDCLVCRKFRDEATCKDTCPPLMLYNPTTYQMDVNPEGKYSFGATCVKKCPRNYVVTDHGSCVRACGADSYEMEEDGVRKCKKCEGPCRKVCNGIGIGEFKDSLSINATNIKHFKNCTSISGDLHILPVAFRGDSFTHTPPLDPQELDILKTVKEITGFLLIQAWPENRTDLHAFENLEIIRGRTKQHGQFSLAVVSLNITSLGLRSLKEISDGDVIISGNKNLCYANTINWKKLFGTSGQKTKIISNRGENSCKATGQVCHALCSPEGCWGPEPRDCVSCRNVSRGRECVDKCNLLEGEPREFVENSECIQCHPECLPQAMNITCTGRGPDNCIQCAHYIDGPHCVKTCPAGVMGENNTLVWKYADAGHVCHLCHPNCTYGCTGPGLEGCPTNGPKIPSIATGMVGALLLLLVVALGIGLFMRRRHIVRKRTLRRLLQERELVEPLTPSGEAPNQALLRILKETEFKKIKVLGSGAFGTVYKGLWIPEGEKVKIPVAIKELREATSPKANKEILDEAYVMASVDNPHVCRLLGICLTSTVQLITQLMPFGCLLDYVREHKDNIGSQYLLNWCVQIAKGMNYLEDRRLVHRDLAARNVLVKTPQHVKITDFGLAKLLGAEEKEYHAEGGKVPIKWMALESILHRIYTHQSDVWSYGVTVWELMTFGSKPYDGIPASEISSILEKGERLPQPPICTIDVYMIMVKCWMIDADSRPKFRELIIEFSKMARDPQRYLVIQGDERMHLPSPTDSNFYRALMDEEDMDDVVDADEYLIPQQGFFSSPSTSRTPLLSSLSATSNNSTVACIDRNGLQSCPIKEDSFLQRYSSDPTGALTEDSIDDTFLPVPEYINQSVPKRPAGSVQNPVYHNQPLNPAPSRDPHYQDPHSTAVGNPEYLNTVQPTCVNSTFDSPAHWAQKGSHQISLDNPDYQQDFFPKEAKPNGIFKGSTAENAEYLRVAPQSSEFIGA
# Description: Inhibition of EGF-stimulated autophosphorylation of EGFR enzyme in A431 cells detected by immunoblotting
# [3] = molecular target: T1, Epidermal growth factor receptor; remark: listed apart in the source
# Description: Inhibition of phosphorylation of a polyglutamic acid/tyrosine random copolymer by EGFR enzyme prepared from human A431 carcinoma cell vesicles by immunoaffinity chromatography
# [4] = tested on: Caco-2; experiment: Secretory Transport in Caco-2 cells in comparison to metoprolol; assay type: functional, cell-based; design: unit not given here; conditions: Homo sapiens
# [5] = tested on: Caco-2; experiment: permeability in Caco-2 cells; no; assay type: functional, cell-based; conditions: Homo sapiens
# [6] = tested on: Caco-2; experiment: Efflux in Caco-2 cells; no; assay type: functional, cell-based; conditions: Homo sapiens
# [7] = tested on: A-431; experiment: In vivo activity against A431 xenografts in mice, difference in days for treated(T) and control(C) tumors to reach 750 mg at 20 mg/kg peroral dose for 10-24 days; assay type: functional; conditions: route oral
# [8] = tested on: A-431; experiment: In vivo activity against A431 xenografts in mice, ratio of treated/control tumor mass at 20 mg/kg peroral dose for 15-19 days; conditions: route oral
# [9] = tested on: A-431; experiment: In vivo activity against A431 xenografts in mice, ratio of treated/control A431 cell tumor mass at 20 mg/kg peroral dose for 10-24 days; assay type: functional; conditions: route oral
# [10] = tested on: Caco-2; experiment: Absorptive transport in Caco-2 cells in comparison to metoprolol; assay type: functional, cell-based; conditions: Homo sapiens
# [11] = tested on: Caco-2; experiment: permeability in Caco-2 cells; yes; assay type: functional, cell-based; conditions: Homo sapiens
# [12] = tested on: Caco-2; experiment: Efflux in Caco-2 cells; yes; assay type: functional, cell-based; conditions: Homo sapiens
# [13] = tested on: Caco-2; experiment: Absorptive transport in Caco-2 cells in comparison to metoprolol.; assay type: functional, cell-based; conditions: Homo sapiens
# [14] = tested on: A-431; experiment: In vivo activity against A431 xenografts in mice, ratio of treated/control tumor mass at 18 mg/kg peroral dose for 10-24 days; conditions: route oral
# [15] = tested on: A-431; experiment: In vivo activity against A431 xenografts in mice, ratio of treated/control tumor mass at 5 mg/kg peroral dose for 10-24 days; assay type: functional; conditions: route oral
# [16] = tested on: Mus musculus; experiment: In vivo activity against xenografts in mice, ratio of treated/control tumor mass at 10 mg/kg peroral dose for 10-24 days; assay type: functional; conditions: route oral
# [17] = tested on: A-431; experiment: In vivo activity against A431 xenografts in mice, difference in days for treated(T) and control(C) tumors to reach 750 mg at 60 mg/kg peroral dose for 10-24 days; assay type: functional; conditions: route oral
# [18] = tested on: Mus musculus; experiment: In vivo activity against xenografts in mice, ratio of treated/control tumor mass at 10 mg/kg intraperitoneal dose
# [19] = tested on: A-431; experiment: In vivo activity against A431 xenografts in mice after 60 mg/kg peroral dose; assay type: functional; conditions: route oral
# [20] = tested on: A-431; experiment: In vivo activity against A431 xenografts in mice, difference in days for treated(T) and control(C) tumors to reach 750 mg at 10 mg/kg intraperitoneal dose for 13-26 days
Structure (SMILES),IC50 [1],IC50 [2],IC50 [3],further results
C=CC(=O)Nc1nc2c(Nc3ccc(F)c(Cl)c3)ncnc2cc1OCCCN1CCOCC1,189 nM,434 nM,1.5 nM,Permeability [4]: 81.2; Permeability limited [5]: Impermeable; Efflux [6]: Impermeable; T-C [7]: 9.3 days; Weight change [8]: -0.5 g; T/C [9]: 69%; Permeability [10]: 59.6 ·10e6
C=CC(=O)Nc1nc2c(Nc3ccc(F)c(Cl)c3)ncnc2cc1/C=C/CCN1CCOCC1,12 nM,119 nM,0.16 nM,–
C=CC(=O)Nc1nc2c(Nc3ccc(F)c(Cl)c3)ncnc2cc1CCCCN1CCOCC1,> 5000 nM,5100 nM,2.7 nM,–
C=CC(=O)Nc1ccc2ncnc(Nc3ccc(OCCN(C)C)c(Br)c3)c2c1,–,7690 nM,27 nM,–
CC[C@]1(O)C[C@@H]2CN(CCc3c([nH]c4ccccc34)[C@@](C(=O)OC)(c3cc4c(cc3OC)N(C)[C@H]3[C@@](O)(C(=O)OC)[C@H](OC(C)=O)[C@]5(CC)C=CCN6CC[C@]43[C@@H]65)C2)C1,–,–,–,Permeability [11]: Active; Permeability [12]: Active; Permeability [10]: 1.54 ·10e6
C=CC(=O)Nc1cc2c(Nc3cccc(C)c3)ncnc2cc1OCCCN1CCN(C)CC1,–,18 nM,2 nM,–
C=CC(=O)Nc1cc2c(Nc3ccc(F)c(Cl)c3)ncnc2cc1OCCCN1CCOCC1 [CANERTINIB],–,–,–,Permeability [13]: 49.3 ·10e6; Last therapy day [14]: 0%; Cell permeation [5]: Impermeable; Efflux [6]: Impermeable; Last therapy day [15]: 4%
C=CC(=O)Nc1cc2c(Nc3ccc(F)c(Cl)c3)ncnc2cc1OCCOCCCCO,–,–,1.7 nM,–
C=CC(=O)Nc1ccc2ncnc(Nc3ccc(CN(C)C)c(Br)c3)c2c1,–,416 nM,45 nM,–
COCCc1ccc(OCC(O)CNC(C)C)cc1 (stereo unspecified),–,–,–,Permeability [5]: Impermeable; Permeability [6]: Impermeable; Permeability [10]: 21.4 ·10e6
C=CC(=O)Nc1nc2c(Nc3ccc(F)c(Cl)c3)ncnc2cc1OCCCN1CCN(C)CC1,182 nM,264 nM,6.6 nM,–

# More lines, main results first:
IC50 [1],IC50 [2],IC50 [3],Structure (SMILES),further results
> 200 nM,88 nM,20 nM,C=CC(=O)N(C)c1nc2c(Nc3ccc(F)c(Cl)c3)ncnc2cc1OCCCN1CCOCC1,–
–,7.9 nM,3.9 nM,C=CC(=O)Nc1cc2c(Nc3cccc(Br)c3)ncnc2cc1OCCCCN(C)C,–
125 nM,291 nM,0.95 nM,C=CC(=O)Nc1nc2c(Nc3ccc(F)c(Cl)c3)ncnc2cc1OC,–
–,3 nM,1.7 nM,C=CC(=O)Nc1cc2c(Nc3cccc(Br)c3)ncnc2cc1OCCCN1CCN(C)CC1,–
8.2 nM,4.7 nM,1.8 nM,C=CC(=O)Nc1cc2c(Nc3ccc(F)c(Br)c3)ncnc2cc1OCCCN1CCOCC1,–
6.4 nM,–,–,C=CC(=O)Nc1cc2c(Nc3cccc(Br)c3)ncnc2cc1OCCCN1CCOCC1,T/C [16]: 0%; T-C [17]: 29.8 days; T/C [18]: 18%; Weight change [19]: -1.6 g; T-C [20]: 21.5 days
–,196 nM,0.78 nM,C=CC(=O)Nc1cc2c(Nc3cccc(Br)c3)ncnc2cc1SCCCN(CC)CC,–
22 nM,–,–,C=CC(=O)Nc1ccc2ncnc(Nc3cccc(C)c3)c2c1,–
–,377 nM,0.97 nM,C=CC(=O)Nc1nc2c(Nc3ccc(F)c(Cl)c3)ncnc2cc1OCCOC,–
